Laboratory results reported in patent US20160106711A1, “3-3-Di-Substituted-Oxindoles as Inhibitors of Translation Initiation” (President and Fellows of Harvard College, priority 2012, published 2016).

Experiments:
[1] = system: eIF2•GTP•Met-tRNAi ternary complex; experiment: Ternary complex assay (ATF-4 assay), dual luciferase firefly/renilla ratio; format: cell-based, mouse; settings: for maximal fold induction at 40 µM: read-out: ATF-4 Xmax @ 40 μM
Method in brief: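 Stable KLN cancer cells expressing tTA carry a bidirectional reporter in which firefly luciferase sits behind the ATF-4 5′UTR and renilla luciferase behind a plasmid-derived 5′UTR only. Lysates were read by Dual-Glo luciferase assay, and the output is the firefly/renilla signal ratio.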

[2] = system: CRL-2351; experiment: Cell growth assay (sulforhodamine B), CRL-2351 cells; format: cell-based, human; settings: 5 days, SRB
Method in brief: (§1)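 Cells were exposed for 5 days to 0.54-6 µM compound, then TCA-fixed and stained with sulforhodamine B, read at 490 nm. Growth was expressed as %T/C with time-zero correction. IC50 is the concentration giving 50% growth inhibition.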

[3] = system: CHOP mRNA; experiment: Real time PCR of CHOP mRNA expression, KLN cells; format: cell-based, mouse; settings: for CHOP PCR (μM) KLN / fold induction at 20 µM: at 20 uM
Protocol: (§2) In order to validate the compounds described herein as modifiers of the abundance of the eIF2•GTP•Met-tRNAi ternary complex, the effects of the compounds on endogenous cellular markers of the ternary complex were determined. For example, reducing amount of the ternary complex increases translation of ATF-4, which results in elevated expression of CHOP mRNA and protein. Therefore, expression of endogenous CHOP mRNA and CHOP protein in KLN-tTA/pBISA-DL^(ATF-4) cells were utilized as secondary assays to validate the compounds as modifiers of the eIF2•GTP•Met-tRNAi ternary complex.
(§3) Total RNA was extracted with TaqMan Gene Expression Cells-to-Ct™ Kit (Applied Biosystems, Branchburg, N.J.) and DNAse I treated according to manufacturer's recommendations. 1-Step Real-time PCR was performed on a Bio-Rad iCycler IQ5 system by using B-R 1-Step SYBR Green qRT-PCR Kit (Quanta BioSciences, Gaithersburg, Md.) according to manufacturer's specifications. The thermal cycler conditions were as follows: 10 minutes at 50° C., hold for 5 minutes at 95° C., followed by 2-step PCR for 45 cycles of 95° C. for 15 seconds followed by 60° C. for 30 seconds. All PCRs were performed in triplicate in at least two independent PCR runs. Mean values of these repeated measurements were used for calculation. To calibrate the results, all the transcript quantities were normalized to 18S rRNA (18S ribosomal RNA-like mRNA in mouse). The following primers were used in real-time PCR reactions.
The effects of these compounds on the ternary complex assay and the expression of CHOP mRNA was assayed in adherent mouse (KLN) and human solid tumors cells (CRL-2351 and CRL-2813).

[4] = system: CRL-2813; experiment: Cell growth assay (sulforhodamine B), CRL-2813 cells; format: cell-based, human; settings: 5 days, SRB
Method in brief: as §1

[5] = system: KLN; experiment: Cell growth assay (sulforhodamine B), KLN cells; format: cell-based, mouse; settings: 5 days, SRB
[6] = system: CHOP mRNA; experiment: Real time PCR of CHOP mRNA expression, CRL-2351 cells; format: cell-based, human
Protocol: as §2
as §3, with “Mean values of these repeated measurements were used for calculation.” left out, “The following primers were used in real-time PCR reactions.” left out

[7] = Mus musculus, read-out: ATF-4 Xmax

Structure (SMILES)	IC50 ([2]; Homo sapiens, 120 h)	IC50 ([4]; Homo sapiens, CRL2813, 120 h)	IC50 ([5]; Mus musculus, 120 h)	maximal fold induction at 40 µM ([1]; Mus musculus, at 40 uM)	also measured
CN(C)CCN1C(=O)C(c2cc(C(C)(C)C)ccc2CCCN2CCCC2)(c2cc(C(C)(C)C)ccc2OCCN2CCCC2)c2ccccc21 (centres unmarked) [HY198]					ATF-4 Xmax ([1]; 2.5 uM): 11.82 ± 0.11/2.5 uM; IC50 [2]: 0.2 ± 0.05 µM; CHOP PCR (μM) KLN [3]: 3.76 at; IC50 [4]: 0.8 ± 0.1 µM; IC50 [5]: 0.3 ± 0.1 µM
CC(C)(C)c1ccc(O)c(C2(c3cc(C(C)(C)C)ccc3OCCBr)C(=O)N(CCBr)c3ccccc32)c1 (centres unmarked) [HY183]	2.9 ± 1.2 µM	1.1 ± 0.3 µM	> 20 µM		maximal fold induction at 80 µM [1, 7]: 1.9 ± 0.03; fold induction at 80 µM ([3]; Mus musculus): 1.83
CCN(CCO)CCOc1ccc(C(C)(C)C)cc1C1(c2cc(C(C)(C)C)ccc2OCCN2CCOCC2)C(=O)N(CCN(C)C)c2ccccc21 (centres unmarked) [HY306]					ATF-4 Xmax @ 40 μM ([1]; at 40 uM): 19.2 ± 11.2 at 40 uM; IC50 [2]: 2.3 ± 0.6 µM; CHOP PCR (μM) KLN [3]: 8.11 at; IC50 [4]: 2.7 ± 0.8 µM; IC50 [5]: 2.3 ± 1.6 µM
CCN(CC)CCOc1ccc(C(C)(C)C)cc1C1(c2cc(C(C)(C)C)ccc2O)C(=O)Nc2ccccc21 (centres unmarked) [HY096]	0.6 ± 0.1 µM	1.5 ± 0.6 µM	0.8 ± 0.4 µM		maximal fold induction at 20 µM [1, 7]: 16.7 ± 3.24; fold induction at 20 µM ([3]; Mus musculus): 12.4
O=C1Nc2ccccc2C1(c1cc(Cl)ccc1O)c1cc(Cl)ccc1O [HY033, 3,3-Bis(5-Chloro-2-Hydroxyphenyl)Indolin-2-One]	6.8 ± 0.8 µM	4.2 ± 0.2 µM	15.2 ± 1.6 µM	6.14 ± 0.63	CHOP PCR (μM) 2351 ([6]; CRL-2351, 20 uM): 7.8/20 uM; CHOP PCR (μM) 2351 ([6]; CRL-2351, 40 uM): 18.5/40 uM
COCCOc1ccc(C(C)(C)C)cc1C1(c2cc(C(C)(C)C)ccc2OCCOC)C(=O)Nc2ccccc21 [HY181]	3.9 ± 2 µM	0.9 ± 0.1 µM	> 20 µM		maximal fold induction at 80 µM [1, 7]: 1.58 ± 0.07; fold induction at 80 µM ([3]; Mus musculus): 1.1
CC(C)(C)c1ccc(O)c(C2(c3cc(C(C)(C)C)ccc3OCCN3CCOCC3)C(=O)N(CCN3CCOCC3)c3ccccc32)c1 (centres unmarked) [HY305]	3.6 ± 0.7 µM	2 µM	5 µM	3.61 ± 0.47	maximal fold induction at 80 µM [1, 7]: 31.9 ± 9.27; fold induction at 40 µM ([3]; Mus musculus): 10
O=C1Nc2ccccc2C1(c1cc(C2CCCC2)ccc1O)c1cc(C2CCCC2)ccc1O [HY051, 3,3-Bis(5-Cyclopentyl-2-Hydroxyphenyl)Indolin-2-One]	5.3 ± 2.4 µM	3.1 ± 0.2 µM	> 20 µM		maximal fold induction at 20 µM [1, 7]: 5.48 ± 0.3; fold induction at 20 µM ([3]; Mus musculus): 13.8
COc1ccc(C(C)C)cc1C1(c2cc(C(C)C)ccc2OC)C(=O)Nc2ccccc21 [HY061]	3 µM	2.8 ± 0.2 µM	11 ± 0.4 µM		maximal fold induction at 80 µM [1, 7]: 2.9 ± 1.21; fold induction at 40 µM ([3]; Mus musculus): 4.23; fold induction at 80 µM ([3]; Mus musculus): 12.3
CC(C)(C)c1ccc(O)c(C2(c3cc(C(C)(C)C)ccc3O)C(=O)N(CCN3CCOCC3)c3ccccc32)c1 [HY304]	2.2 ± 0.2 µM	1.6 ± 0.2 µM	17.5 ± 1.3 µM	4.31 ± 0.1	fold induction at 40 µM ([3]; Mus musculus): 9.1
CC(C)(C)c1ccc(OCCN2CCCC2)c(C2(c3cc(C(C)(C)C)ccc3OCCN3CCCC3)C(=O)Nc3ccccc32)c1 [HY191]	0.65 ± 0.1 µM	0.8 ± 0.1 µM	3.5 ± 1.2 µM		maximal fold induction at 5 µM ([1]; Mus musculus, cell prints 5 (uM), read-out: ATF-4 Xmax): 13.9 ± 0.97; fold induction at 5 µM ([3]; Mus musculus, at 5 uM): 8.5
COc1ccc(C2(c3cc(C(C)(C)C)ccc3OCCN3CCOCC3)C(=O)Nc3ccc(OC)cc32)cc1 (centres unmarked) [Sd185, 3-{5-tert-butyl-2-[2-(morpholin-4-yl)ethoxy]phenyl}-5-methoxy-3-(4-methoxyphenyl)-indol-2-one]	4.5 ± 0.7 µM	2.9 ± 0.3 µM	2.75 ± 0.3 µM	3.92 ± 0.16	
CC(C)(C)c1ccc(OCC(=O)O)c(C2(c3ccccc3)C(=O)Nc3ccccc32)c1 (centres unmarked) [Sd177]	> 20 µM	> 20 µM	> 20 µM		maximal fold induction at 80 µM [1, 7]: 1.65 ± 0.04
CC(=O)OCCOc1ccc(C(C)(C)C)cc1C1(c2cc(C(C)(C)C)ccc2O)C(=O)Nc2ccccc21 (centres unmarked) [HY084]	2.7 ± 0.2 µM	1.6 ± 0.4 µM	11.4 ± 0.2 µM	8.59 ± 1.67	maximal fold induction at 80 µM [1, 7]: 11.4 ± 0.4
CN(C)CCOc1ccc(C(C)(C)C)cc1C1(c2cc(C(C)(C)C)ccc2O)C(=O)N(CCN(C)C)c2ccccc21 (centres unmarked) [HY277]	0.3 ± 0.11 µM	0.9 ± 0.1 µM	0.3 ± 0.1 µM		maximal fold induction at 10 µM [1, 7]: 14.3 ± 1.86
COc1ccc(OC)c(C2(c3cc(O)ccc3OC)C(=O)Nc3ccccc32)c1 (centres unmarked) [HY055]	9 µM	9.7 ± 2 µM	15.6 ± 0.4 µM		maximal fold induction at 80 µM [1, 7]: 1.2 ± 0.6
CC(C)(C)c1ccc(O)c(C2(c3ccc(O)cc3)C(=O)Nc3ccccc32)c1 (centres unmarked) [Sd096]	2 µM	4 ± 0.28 µM	17.3 ± 1.8 µM	1.69 ± 0.6	
CCN(C)CCOc1ccc(C(C)(C)C)cc1C1(c2cc(C(C)(C)C)ccc2O)C(=O)Nc2ccccc21 (centres unmarked) [HY301]	0.9 ± 0.2 µM	1.5 ± 0.7 µM	4.6 ± 1.2 µM		maximal fold induction at 20 µM [1, 7]: 15.1 ± 1.04
CC(=O)OCCOc1ccc(C(C)(C)C)cc1C1(c2cc(C(C)(C)C)ccc2OCCOC(C)=O)C(=O)Nc2ccccc21 [HY184]	2 µM	2 µM	> 20 µM		maximal fold induction at 80 µM [1, 7]: 2.07 ± 1.6
COCCOc1ccc(C(C)(C)C)cc1C1(c2cc(C(C)(C)C)ccc2O)C(=O)Nc2ccccc21 (centres unmarked) [HY081]	3.9 ± 2 µM	0.9 ± 0.1 µM	> 20 µM	1.21 ± 0.16	fold induction at 40 µM ([3]; Mus musculus): 1.78
CC(C)(C)c1ccc(OCCO)c(C2(c3cc(C(C)(C)C)ccc3OCCO)C(=O)Nc3ccccc32)c1 [HY169]	2.7 ± 0.3 µM	2.9 ± 0.1 µM	11 ± 2.4 µM		maximal fold induction at 20 µM [1, 7]: 3.4 ± 0.1
CC(C)(C)c1ccc(O)c(C2(c3cc(C(C)(C)C)ccc3OCCN3CCCC3)C(=O)Nc3ccccc32)c1 (centres unmarked) [HY091]	1 µM	10.7 ± 0.8 µM	1.4 ± 0.4 µM		maximal fold induction at 10 µM [1, 7]: 2.73 ± 0.65; maximal fold induction at 20 µM [1, 7]: 5.3 ± 0.7
CN1CCN(CCOc2ccc(C(C)(C)C)cc2C2(c3cc(C(C)(C)C)ccc3OCCN3CCN(C)CC3)C(=O)N(CCN3CCNCC3)c3ccccc32)CC1 [HY313]	0.6 ± 0.1 µM	> 20 µM	9.3 ± 3.2 µM		fold induction at 10 µM ([3]; Mus musculus, at 10 (uM)): 6.73
CN(C)CCOc1ccc(C(C)(C)C)cc1C1(c2cc(C(C)(C)C)ccc2OCCN(C)C)C(=O)N(CCN(C)C)c2ccccc21 [HY092]	0.34 ± 0.18 µM	0.9 ± 0.01 µM	0.2 ± 0.03 µM		maximal fold induction at 2.5 µM ([1]; Mus musculus, 2.5 uM, read-out: ATF-4 Xmax): 16.8 ± 2.18
CC(C)(C)c1cccc(C2(c3cc(C(C)(C)C)ccc3O)C(=O)N(CCBr)c3ccccc32)c1 (centres unmarked) [HY283]	1.5 ± 0.7 µM	1.4 ± 0.4 µM	> 20 µM	9.6 ± 0.16	
CC(C)(C)c1ccc(OCCN2CCNCC2)c(C2(c3cc(C(C)(C)C)ccc3OCCN3CCNCC3)C(=O)Nc3ccccc32)c1 [HY401]	0.8 ± 0.1 µM	1.5 ± 0.9 µM	10.6 ± 0.9 µM	11.4 ± 0.65	
CC(C)(C)c1ccc(O)c(C2(c3ccc(O)cc3)C(=O)Nc3c2ccc(F)c3F)c1 (centres unmarked) [Sd141]	> 20 µM	10.7 ± 3.9 µM	15.3 ± 1.9 µM	2.9 ± 0.6	
